Laboratory results: US12187742B2 (XRAD Therapeutics, Inc., priority 2018, dated 2025)
Where a name gives a salt, the structure may show the parent alone.

Biological target: ATM (Homo sapiens (Human), UniProt Q13315)
Experiment: ATM in Cell Western Assay (pKAP1 in etoposide-treated MCF-7 cells)
Type: cell-based
Details: MCF-7 cells, etoposide 100 μM, 1 hr, pKAP1 readout
Summary of the method: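 After paraformaldehyde fixation and Triton X-100 permeabilization, immunostained plates were read by infrared scanning (ODYSSEY CLx). Compound was given as 10 doses, 3-fold dilutions from a 1 μM final top concentration.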

Chain of ATM (Q13315 whole entry): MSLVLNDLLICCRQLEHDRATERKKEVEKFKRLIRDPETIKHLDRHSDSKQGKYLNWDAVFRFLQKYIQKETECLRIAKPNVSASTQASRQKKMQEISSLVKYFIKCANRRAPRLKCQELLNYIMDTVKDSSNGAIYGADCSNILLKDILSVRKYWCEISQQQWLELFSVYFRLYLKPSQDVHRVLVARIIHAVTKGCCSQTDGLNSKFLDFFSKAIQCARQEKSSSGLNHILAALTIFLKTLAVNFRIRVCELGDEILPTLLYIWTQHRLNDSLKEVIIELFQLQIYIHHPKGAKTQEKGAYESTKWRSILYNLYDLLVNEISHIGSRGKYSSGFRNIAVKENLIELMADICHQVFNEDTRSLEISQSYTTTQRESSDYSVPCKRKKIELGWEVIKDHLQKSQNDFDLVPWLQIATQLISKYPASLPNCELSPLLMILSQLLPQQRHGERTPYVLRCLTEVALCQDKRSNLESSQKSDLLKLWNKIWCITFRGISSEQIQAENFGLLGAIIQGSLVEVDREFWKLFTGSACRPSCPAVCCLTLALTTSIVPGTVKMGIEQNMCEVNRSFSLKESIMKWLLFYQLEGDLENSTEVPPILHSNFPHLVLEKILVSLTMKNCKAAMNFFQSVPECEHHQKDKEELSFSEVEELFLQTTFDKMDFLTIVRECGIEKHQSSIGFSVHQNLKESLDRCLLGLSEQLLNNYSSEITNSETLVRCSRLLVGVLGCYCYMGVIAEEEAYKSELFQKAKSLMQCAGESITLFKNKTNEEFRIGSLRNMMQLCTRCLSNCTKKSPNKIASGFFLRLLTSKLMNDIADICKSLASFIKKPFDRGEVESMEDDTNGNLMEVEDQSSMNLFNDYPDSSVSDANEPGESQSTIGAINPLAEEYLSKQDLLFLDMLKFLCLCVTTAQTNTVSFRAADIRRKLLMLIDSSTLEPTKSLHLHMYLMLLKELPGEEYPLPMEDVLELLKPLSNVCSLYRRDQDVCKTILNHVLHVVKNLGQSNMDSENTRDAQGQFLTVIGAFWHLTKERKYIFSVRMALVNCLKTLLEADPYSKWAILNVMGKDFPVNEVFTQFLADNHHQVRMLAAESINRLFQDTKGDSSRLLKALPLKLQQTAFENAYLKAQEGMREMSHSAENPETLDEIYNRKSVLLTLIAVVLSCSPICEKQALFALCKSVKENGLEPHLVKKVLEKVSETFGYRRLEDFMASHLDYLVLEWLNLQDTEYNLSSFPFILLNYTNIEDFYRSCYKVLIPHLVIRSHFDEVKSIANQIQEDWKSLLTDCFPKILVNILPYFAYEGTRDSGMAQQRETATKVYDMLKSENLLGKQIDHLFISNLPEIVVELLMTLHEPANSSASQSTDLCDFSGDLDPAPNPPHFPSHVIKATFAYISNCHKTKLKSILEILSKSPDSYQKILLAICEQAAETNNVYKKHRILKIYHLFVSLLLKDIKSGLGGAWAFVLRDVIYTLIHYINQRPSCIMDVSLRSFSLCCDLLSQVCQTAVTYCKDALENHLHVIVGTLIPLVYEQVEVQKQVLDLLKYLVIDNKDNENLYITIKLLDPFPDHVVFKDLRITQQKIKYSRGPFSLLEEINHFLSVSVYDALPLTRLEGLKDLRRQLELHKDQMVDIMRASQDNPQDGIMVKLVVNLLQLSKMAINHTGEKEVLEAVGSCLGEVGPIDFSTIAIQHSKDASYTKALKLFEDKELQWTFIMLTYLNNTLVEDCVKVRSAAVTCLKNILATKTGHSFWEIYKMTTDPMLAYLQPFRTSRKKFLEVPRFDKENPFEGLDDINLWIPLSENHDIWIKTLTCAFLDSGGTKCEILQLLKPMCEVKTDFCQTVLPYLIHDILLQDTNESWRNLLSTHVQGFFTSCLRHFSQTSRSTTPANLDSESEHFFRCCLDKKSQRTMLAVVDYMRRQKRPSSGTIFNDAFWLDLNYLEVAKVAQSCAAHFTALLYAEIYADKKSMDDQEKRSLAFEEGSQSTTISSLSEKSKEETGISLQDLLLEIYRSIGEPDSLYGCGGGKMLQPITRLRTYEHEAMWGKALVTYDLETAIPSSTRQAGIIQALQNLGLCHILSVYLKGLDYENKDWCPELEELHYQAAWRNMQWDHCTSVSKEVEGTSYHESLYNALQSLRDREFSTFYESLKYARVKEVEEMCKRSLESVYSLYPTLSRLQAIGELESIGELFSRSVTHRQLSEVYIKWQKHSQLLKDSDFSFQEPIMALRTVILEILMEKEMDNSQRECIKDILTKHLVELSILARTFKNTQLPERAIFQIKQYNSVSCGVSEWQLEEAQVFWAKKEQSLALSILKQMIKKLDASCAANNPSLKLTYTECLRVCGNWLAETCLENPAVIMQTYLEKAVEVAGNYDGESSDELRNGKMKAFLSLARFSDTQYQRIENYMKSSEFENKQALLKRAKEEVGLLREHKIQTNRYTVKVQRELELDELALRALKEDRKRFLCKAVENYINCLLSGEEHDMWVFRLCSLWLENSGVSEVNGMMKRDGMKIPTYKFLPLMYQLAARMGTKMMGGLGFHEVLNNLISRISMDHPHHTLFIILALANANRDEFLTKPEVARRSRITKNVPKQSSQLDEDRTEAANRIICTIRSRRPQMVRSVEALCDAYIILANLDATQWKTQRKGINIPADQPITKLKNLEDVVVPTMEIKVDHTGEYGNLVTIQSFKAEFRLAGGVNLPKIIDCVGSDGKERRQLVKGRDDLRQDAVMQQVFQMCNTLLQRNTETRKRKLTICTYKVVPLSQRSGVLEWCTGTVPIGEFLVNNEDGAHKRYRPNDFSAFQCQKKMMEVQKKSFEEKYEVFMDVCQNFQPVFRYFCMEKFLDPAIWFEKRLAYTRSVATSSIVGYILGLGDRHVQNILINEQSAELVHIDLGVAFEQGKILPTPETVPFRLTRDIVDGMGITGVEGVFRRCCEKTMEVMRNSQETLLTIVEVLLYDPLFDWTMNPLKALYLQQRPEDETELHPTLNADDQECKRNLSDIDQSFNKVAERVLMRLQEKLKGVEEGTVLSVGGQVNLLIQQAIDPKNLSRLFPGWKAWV

| IC50 | SMILES |
| --- | --- |
| > 100 nM | CN1C(=O)C2(CCC2)c2c1cnc1ccc(-c3cnc(OCC(F)(F)CN4CCCCC4)c(NS(C)(=O)=O)c3)cc21 [Example 256, N-(2-(2,2-Difluoro-3-(piperidin-1-yl)propoxy)-5-(3′-methyl-2′-oxo-2′,3′-dihydrospiro[cyclobutane-1,1′-pyrrolo[2,3-c]quinolin]-8′-yl)pyridin-3-yl)methanesulfonamide] |
| > 100 nM | CC(C)Nc1cc(-c2ccc3ncc4c(c3c2)C2(CC2)C(=O)N4C)cnc1OCCCN(C)C [Example 34, 8′-(6-(3-(Dimethylamino)propoxy)-5-(isopropylamino)pyridin-3-yl)-3′-methylspiro[cyclopropane-1,1′-pyrrolo[2,3-c]quinolin]-2′(3′-H)-one] |
| 1 to 100 nM | CN1C(=O)C2(CCC2)c2c1cnc1cc(F)c(-c3cnc(N4CC(N(C)C)C4)c(NS(=O)(=O)c4ccccc4F)c3)cc21 [Example 322, N-(2-(3-(Dimethylamino)azetidin-1-yl)-5-(7′-fluoro-3′-methyl-2′-oxo-2′,3′-dihydrospiro[cyclobulane-1,1′-pyrrolo[2,3-c]quinolin]-8′-yl)pyridin-3-yl)-2-fluorobenzenesulfonamide hydrochloride] |
| 1 to 100 nM | CN(C)CC1CN(c2ncc(-c3ccc4ncc5c(c4c3)C3(CC3)C(=O)N5C)cc2NS(=O)(=O)C2CC2)C1 [Example 122, N-(2-(3-((Dimethylamino)methyl)azetidin-1-yl)-5-(3′-methyl-2′-oxo-2′,3′-dihydrospiro[cyclopropane-1,1′-pyrrolo[2,3-c]quinolin]-8′-yl)pyridin-3-yl)cyclopropanesulfonamide] |
| 1 to 100 nM | CN1C(=O)C2(CC2)c2c1cnc1ccc(-c3cnc(OCCCN4CCCC4)c(NS(=O)(=O)C4CC4)c3)cc21 [Example 60, N-(5-(3-Methyl-2′-oxo-2′,3′-dihydrospiro [cyclopropane-1,1′-pyrrolo[2,3-c]quinolin]-8′-yl)-2-(3-(pyrrolidin-1-yl)propoxy)pyridin-3-yl) cyclopropanesulfonamide] |
| 1 to 100 nM | CC(=O)Nc1ccc(S(=O)(=O)Nc2cc(-c3ccc4ncc5c(c4c3)C3(CC3)C(=O)N5C)cnc2OCCCN(C)C)cc1 [Example 101, N-(4-(N-(2-(3-(Dimethylamino)propoxy)-5-(3′-methyl-2′-oxo-2′,3′-dihydrospiro [cyclopropane-1,1′-pyrrolo[2,3-c]quinolin]-8′-yl)pyridin-3-yl)sulfamoyl)phenyl) acetamide] |
| 1 to 100 nM | CN(C)CCCOc1ncc(-c2ccc3ncc4c(c3c2)C2(CCC2)C(=O)N4C)cc1NS(=O)(=O)N1CCCc2ccccc21 [Example 139] |
| > 100 nM | COc1ccc2cc(-c3ccc4ncc5c(c4c3)C3(CC3)C(=O)N5C)ccc2n1 [Example 44, 8′-(2-Methoxyquinolin-6-yl)-3′-methylspiro [cyclopropane-1,1′-pyrrolo[2,3-c]quinolin]-2′(3′-H)-one] |
| > 100 nM | COc1ncc(-c2ccc3ncc4c(c3c2)C2(CC2)C(=O)N4CCC#N)cc1NS(=O)(=O)c1ccccc1 [Example 27, N-(5-(3′-(2-Cyanoethyl)-2′-oxo-2′,3′-dihydrospiro[cyclopropane-1,1′-pyrrolo[2,3-c]quinolin]-8′-yl)-2-methoxypyridin-3-yl)benzenesulfonamide] |
| 1 to 100 nM | CCCCN(C)S(=O)(=O)Nc1cc(-c2ccc3ncc4c(c3c2)C2(CCC2)C(=O)N4C)cnc1OCCCN(C)C [Example 176] |
| > 100 nM | CC(C)Oc1cc(-c2ccc3ncc4c(c3c2)C2(CC2)C(=O)N4C)cnc1OCCCN(C)C [Example 38, 8′-(6-(3-(Dimethylamino)propoxy)-5-isopropoxypyridin-3-yl)-3′-methylspiro[cyclopropane-1,1′-pyrrolo[2,3-c]quinolin]-2′(3′-H)-one] |
| > 100 nM | CC(Oc1cc(-c2ccc3ncc4c(c3c2)C2(CC2)C(=O)N4C)cnc1OCCCN(C)C)c1ccccc1 (stereo not drawn) [Example 95, 8′-(6-(3-(Dimethylamino)propoxy)-5-(1-phenylethoxy)pyridin-3-yl)-3′-methylspiro[cyclopropane-1,1′-pyrrolo[2,3-c]quinolin]-2′(3′-H)-one] |
| > 100 nM | CN1C(=O)C2(CCC2)c2c1cnc1ccc(-c3cnc(OCCCN4CC(F)(F)C4)c(NS(C)(=O)=O)c3)cc21 [Example 307, N-(2-(3-(3,3-Difluoroazetidin-1-yl)propoxy)-5-(3′-methyl-2′-oxo-2′,3′-dihydrospiro[cyclobutane-1,1′-pyrrolo[2,3-c]quinolin]-8′-yl)pyridin-3-yl) methanesulfonamide formate] |
| 1 to 100 nM | CN(C)CCCOc1ncc(-c2ccc3ncc4c(c3c2)C2(CCC2)C(=O)N4C)nc1NS(C)(=O)=O [Example 263, N-(3-(3-(Dimethylamino)propoxy)-6-(3′-methyl-2′-oxo-2′,3′-dihydrospiro [cyclobutane-1,1′-pyrrolo[2,3-c]quinolin]-8′-yl)pyrazin-2-yl) methanesulfonamide] |
| > 100 nM | CN1C(=O)C2(CC2)c2c1cnc1ccc(-c3cncnc3)cc21 [Example 51, 3′-Methyl-8′-(pyrimidin-5-yl)spiro[cyclopropane-1,1′-pyrrolo [2,3-c]quinolin]-2′(3′-H)-one] |

Same assay, conditions: pKAP1 in etoposide-treated MCF-7 cells

| IC50 | SMILES |
| --- | --- |
| 1 to 100 nM | CO[C@H]1C[C@@]2(C1)C(=O)N(C)c1cnc3cc(F)c(-c4cnc(OCCNC(C)C)c(NS(C)(=O)=O)c4)cc3c12 [Example 386] |
| > 100 nM | CC(=O)N1CCC(N2CC3(C2)C(=O)N(C)c2cnc4cc(F)c(-c5cnc(OCCNC(C)C)c(NS(C)(=O)=O)c5)cc4c23)CC1 [Example 503, N-(5-(1-(1-Acetylpiperidin-4-yl)-7′-fluoro-3′-methyl-2′-oxo-2′,3′-dihydrospiro[azetidine-3,1′-pyrrolo[2,3-c]quinolin]-8′-yl)-2-(2-(isopropylamino)ethoxy)pyridin-3-yl)methanesulfonamide] |
| 1 to 100 nM | COC[C@H]1C[C@@]2(C1)C(=O)N(C)c1cnc3cc(F)c(-c4cnc(OCCNC(C)C)c(NS(C)(=O)=O)c4)cc3c12 [Example 405, trans-N-(5-(7′-Fluoro-3-(methoxymethyl)-3′-methyl-2′-oxo-2′,3′-dihydrospiro[cyclobutane-1,1′-pyrrolo[2,3-c]quinolin]-8′-yl)-2-(2-(isopropylamino)ethoxy)pyridin-3-yl)methanesulfonamide] |
| 1 to 100 nM | CCCCN1CC2(C1)C(=O)N(C)c1cnc3cc(F)c(-c4cnc(OCCNC(C)C)c(NS(C)(=O)=O)c4)cc3c12 [Example 489, N-(5-(1-butyl-7′-fluoro-3′-methyl-2′-oxo-2′,3′-dihydrospiro[azetidine-3,1′-pyrrolo[2,3-c]quinolin]-8′-yl)-2-(2-(isopropylamino)ethoxy)pyridin-3-yl)methanesulfonamide] |
| > 100 nM | CN1C(=O)C2(CCC2)c2c1cnc1cc(F)c(-c3cnc(OCCNC4CCC4)c(NS(C)(=O)=O)c3)cc21 [Example 377, N-(2-(2-(Cyclobutylamino)ethoxy)-5-(7′-fluoro-3′-methyl-2′-oxo-2′,3′-dihydrospiro[cyclobutane-1,1′-pyrrolo[2,3-c]quinolin]-8′-yl)pyridin-3-yl)methanesulfonamide] |
| > 100 nM | CC(C)NCCOc1ncc(-c2cc3c4c(cnc3cc2F)N(C)C(=O)C42CN(C(N)=O)C2)cc1NS(C)(=O)=O [Example 517, 7′-Fluoro-8′-(6-(2-(isopropylamino)ethoxy)-5-(methylsulfonamido)pyridin-3-yl)-3′-methyl-2′-oxo-2′,3′-dihydrospiro[azetidine-3,1′-pyrrolo[2,3-c]quinoline]-1-carboxamide] |
| 1 to 100 nM | CC(C)NCCOc1ncc(-c2cc3c4c(cnc3cc2F)N(C)C(=O)C42CN(C3CC3)C2)cc1NS(C)(=O)=O [Example 496, N-(5-(1-Cyclopropyl-7′-fluoro-3′-methyl-2′-oxo-2′,3′-dihydrospiro[azetidine-3,1′-pyrrolo[2,3-c]quinolin]-8′-yl)-2-(2-(isopropylamino)ethoxy)pyridin-3-yl)methanesulfonamide] |
| 1 to 100 nM | CC(C)NCCOc1ncc(-c2cc3c4c(cnc3cc2F)N(C)C(=O)C42CN(Cc3ccccc3)C2)cc1NS(C)(=O)=O [Example 495, N-(5-(1-Benzyl-7-fluoro-3′-methyl-2′-oxo-2′,3′-dihydrospiro[azetidine-3,1′-pyrrolo[2,3-c]quinolin]-8′-yl)-2-(2-(isopropylamino)ethoxy)pyridin-3-yl)methanesulfonamide] |
| > 100 nM | CC(C)NCCOc1ncc(-c2cc3c4c(cnc3cc2F)N(C)C(=O)C42CCC2)cc1NS(=O)(=O)C(F)F [Example 368, 1,1-Difluoro-N-(5-(7′-fluoro-3′-methyl-2′-oxo-2′,3′-dihydrospiro[cyclobutane-1,1′-pyrrolo[2,3-c]quinolin]-8′-yl)-2-(2-(isopropylamino)ethoxy)pyridin-3-yl)methanesulfonamide] |
| 1 to 100 nM | CCC(CC)N1CC2(C1)C(=O)N(C)c1cnc3cc(F)c(-c4cnc(OCCNC(C)C)c(NS(C)(=O)=O)c4)cc3c12 [Example 490, N-(5-(7′-Fluoro-3′-methyl-2′-oxo-1-(pentan-3-yl)-2′,3′-dihydrospiro[azetidine-3,1′-pyrrolo[2,3-c]quinolin]-8′-yl)-2-(2-(isopropylamino)ethoxy)pyridin-3-yl)methanesulfonamide] |
| 1 to 100 nM | CN(C)CCCOc1ncc(-c2cc(F)c3ncc4c(c3c2)C2(CCC2)C(=O)N4C)cc1NS(=O)(=O)N(C)C [Example 557, 8′-{6-[3-(Dimethylamino)propoxy]-5-[(dimethylsulfainoyl)amino]pyridin-3-yl}-6′-fluoro-3′-methyl-2′,3′-dihydrospiro [cyclobutane-1,1′-pyrrolo[2,3-c]quinoline]-2′-one] |
| 1 to 100 nM | COCCN[C@H]1C[C@@]2(C1)C(=O)N(C)c1cnc3cc(F)c(-c4cnc(OCCNC(C)C)c(NS(C)(=O)=O)c4)cc3c12 [Example 474, trans-N-{5-(7′-Fluoro-3-((2-methoxyethyl)amino)-3′-methyl-2′-oxo-2′,3′-dihydrospiro[cyclobutane-1,1′-pyrrolo[2,3-c]quinolin]-8′-yl)-2-(2-(isopropylamino)ethoxy)pyridin-3-yl)methanesulfonamide] |
